The IC50 is the concentration needed to halve the response being measured.

In experiment [1] the target is KRAS WT (Homo sapiens (Human), UniProt P01116). Description: KRAS WT Biochemical Assay, BODIPY-GDP Exchange TR-FRET (Example 501; 3 nM KRAS WT, 3 nM SOS1, 60-minute incubation). Put shortly:
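SOS1-mediated exchange assay: 3 nM biotin-KRAS WT with terbium-streptavidin, started with 3 nM SOS1 and 300 nM BODIPY-GDP, HEPES pH 7.5 with MgCl2. TR-FRET (520/490 nm) read after 60 min; normalized to DMSO and full-inhibition control, IC50 from 4-parameter Hill fit.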
(In general: Time-resolved FRET reads energy transfer from a long-lived donor to a nearby acceptor.)

For experiment [2], the target named is KRAS G12D (Homo sapiens (Human), UniProt P01116, G12D). Description: KRAS G12D LoEnz Biochemical Assay, BODIPY-GDP Exchange TR-FRET (SOS1-mediated nucleotide exchange). Particulars: read-out: KRas (G12D) GDP HTRF IC50.
[3] abbreviates: read-out: KRas(wt) GDP HTRF IC50.

Like-named read-outs stand apart in the source and are kept apart here.

Chain of KRAS G12D (P01116-2 other isoform, or with tags, fused parts or gaps G12D): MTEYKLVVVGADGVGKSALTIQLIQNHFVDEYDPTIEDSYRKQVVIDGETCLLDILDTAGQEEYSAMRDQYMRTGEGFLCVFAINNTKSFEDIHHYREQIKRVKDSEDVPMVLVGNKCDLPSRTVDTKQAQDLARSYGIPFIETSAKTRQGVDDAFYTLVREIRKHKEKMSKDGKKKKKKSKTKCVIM
Chain of KRAS WT (P01116-2 other isoform, or with tags, fused parts or gaps): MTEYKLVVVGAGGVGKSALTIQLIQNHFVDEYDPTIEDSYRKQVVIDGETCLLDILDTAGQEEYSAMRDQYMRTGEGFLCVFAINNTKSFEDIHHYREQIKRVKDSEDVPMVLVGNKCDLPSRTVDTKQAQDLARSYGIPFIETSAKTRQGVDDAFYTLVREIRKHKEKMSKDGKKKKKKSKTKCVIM

Consider `Cc1nc(N)cc(-c2nc3c4c(nc(OCC56C[C@@H](F)CN5C[C@H](F)C6)nc4c2F)N2C[C@H]4CC[C@H](N4)[C@H]2[C@H](C(F)(F)F)O3)c1C(F)(F)F` [Compound 261, 4-((5R,5aS,6S,9R)-12-(((2R,6R)-2,6-Difluorotetrahydro-1H-pyrrolizin-7a(5H)-yl)methoxy)-1-fluoro-5-(trifluoromethyl)-5a,6,7,8,9,10-hexahydro-5H-4-oxa-3,10a,11,13,14-pentaaza-6,9-methanonaphtho[1,8-ab]heptalen-2-yl)-6-methyl-5-(trifluoromethyl)pyridin-2-amine], for which the IC50 stood at 97.1 nM in experiment [1] (read-out: KRas HTRF IC50) and 2.76 nM in experiment [2].
With `Cc1c(F)c(N)c(F)c(-c2nc3c4c(nc(OC[C@@]56CCCN5C[C@H](F)C6)nc4c2F)N2C[C@H]4CC[C@H](N4)[C@H]2[C@H](C)O3)c1I` [Compound 204, 2,6-Difluoro-3-((5S,5aS,6S,9R)-1-fluoro-12-(((2R,7aS)-2-fluorotetrahydro-1H-pyrrolizin-7a(5H)-yl)methoxy)-5-methyl-5a,6,7,8,9,10-hexahydro-5H-4-oxa-3,10a,11,13,14-pentaaza-6,9-methanonaphtho[1,8-ab]heptalen-2-yl)-4-iodo-5-methylaniline], the IC50 in experiment [1] (read-out: KRas HTRF IC50) was determined as 69.1 nM; in experiment [2], 0.385 nM.
`Cc1c(F)c(N)cc(-c2nc3c4c(nc(OC[C@@]56CCCN5C[C@H](OCc5ccc(-c7ccccc7C#N)cc5)C6)nc4c2F)N2C[C@H]4CC[C@H](N4)[C@H]2[C@H](C)O3)c1C(F)(F)F` [Compound 32, 4′-((((2R,7aS)-7a-((((5S,5aS,6S,9R)-2-(5-amino-4-fluoro-3-methyl-2-(trifluoromethyl)phenyl)-1-fluoro-5-methyl-5a,6,7,8,9,10-hexahydro-5H-4-oxa-3,10a,11,13,14-pentaaza-6,9-methanonaphtho[1,8-ab]heptalen-12-yl)oxy)methyl)hexahydro-1H-pyrrolizin-2-yl)oxy)methyl)-[1,1′-biphenyl]-2-carbonitrile]: the results for the IC50 in experiment [1] (setting [3]) and in experiment [2] were 0.579 nM and 0.2 nM, respectively.
Take `COC1(C)CN(CC2(COc3nc4c5c(nc(-c6cc(N)nc(C)c6C(F)(F)F)c(F)c5n3)O[C@@H](C)[C@@H]3[C@@H]5CC[C@H](CN43)N5)CC2)C1` [Compound 273, 4-((5S,5aS,6S,9R)-1-fluoro-12-((1-((3-methoxy-3-methylazetidin-1-yl)methyl)cyclopropyl)methoxy)-5-methyl-5a,6,7,8,9,10-hexahydro-5H-4-oxa-3,10a,11,13,14-pentaaza-6,9-methanonaphtho[1,8-ab]heptalene-2-yl)-6-methyl-5-(trifluoromethyl)pyridin-2-amine]: the IC50 in experiment [1] (read-out: KRas HTRF IC50) came to 17.1 nM; in experiment [2], 0.29 nM.
For `Cc1c(F)c(N)c(F)c(-c2nc3c4c(nc(OCC5(CN6CCOCC6)CC5)nc4c2F)N2C[C@H]4CC[C@H](N4)[C@H]2[C@H](C)O3)c1C(F)(F)F` [Compound 224, 2,6-Difluoro-3-((5S,5aS,6S,9R)-1-fluoro-5-methyl-12-((1-(morpholinomethyl)cyclopropyl)methoxy)-5a,6,7,8,9,10-hexahydro-5H-4-oxa-3,10a,11,13,14-pentaaza-6,9-methanonaphtho[1,8-ab]heptalen-2-yl)-5-methyl-4-(trifluoromethyl)aniline] the same measures were 12 nM and 0.18 nM.
As for `Cc1c(F)c(O)cc(-c2nc3c4c(nc(OC[C@@]56CCCN5C[C@H](F)C6)nc4c2F)N2C[C@H]4CC[C@H](N4)[C@H]2[C@H](C)O3)c1C(F)(F)F` [Compound 202, 2-Fluoro-5-((5S,5aS,6S,9R)-1-fluoro-12-(((2R,7aS)-2-fluorotetrahydro-1H-pyrrolizin-7a(5H)-yl)methoxy)-5-methyl-5a,6,7,8,9,10-hexahydro-5H-4-oxa-3,10a,11,13,14-pentaaza-6,9-methanonaphtho[1,8-ab]heptalen-2-yl)-3-methyl-4-(trifluoromethyl)phenol], the IC50 in experiment [1] (read-out: KRas HTRF IC50) amounted to 214 nM; in experiment [2], 1.98 nM.
In the case of `C[C@@H]1Oc2nc(-c3cc(N)c(F)cc3C(F)(F)F)c(F)c3nc(OC[C@@]45CCCN4C[C@H](F)C5)nc(c23)N2C[C@H]3CC[C@H](N3)[C@@H]12` [Compound 14, 2-fluoro-5-((5S,5aS,6S,9R)-1-fluoro-12-(((2R,7aS)-2-fluorotetrahydro-1H-pyrrolizin-7a(5H)-yl)methoxy)-5-methyl-5a,6,7,8,9,10-hexahydro-5H-4-oxa-3,10a,11,13,14-pentaaza-6,9-methanonaphtho[1,8-ab]heptalen-2-yl)-4-(trifluoromethyl)aniline], the half-maximal inhibitory concentration (IC50) is 6.58 nM in experiment [1] (setting [3]) and 0.26 nM in experiment [2].
As for `C[C@@H]1Oc2nc(-c3cncc4ccccc34)c(F)c3nc(OC[C@@]45CCCN4CC4(CC4(F)F)C5)nc(c23)N2C[C@H]3CC[C@H](N3)[C@@H]12` (stereo partly drawn) [Compound 30, (5S,5aS,6S,9R)-12-(((7a′S)-2,2-difluorodihydro-1′H,3′H-spiro[cyclopropane-1,2′-pyrrolizin]-7a′(5′H)-yl)methoxy)-1-fluoro-2-(isoquinolin-4-yl)-5-methyl-5a,6,7,8,9,10-hexahydro-5H-4-oxa-3,10a,11,13,14-pentaaza-6,9-methanonaphtho[1,8-ab]heptalene], the IC50 came out at 598 nM in experiment [1] (setting [3]) and 19.4 nM in experiment [2].
As to `Cc1nc(N)cc(-c2nc3c4c(nc(OCC5(CN6C[C@@H](C)O[C@@H](C)C6)CC5)nc4c2F)N2C[C@H]4CC[C@H](N4)[C@H]2[C@H](C)O3)c1C(F)(F)F` [Compound 218, 4-((5S,5aS,6S,9R)-12-((1-(((2R,6S)-2,6-Dimethylmorpholino)methyl)cyclopropyl)methoxy)-1-fluoro-5-methyl-5a,6,7,8,9,10-hexahydro-5H-4-oxa-3,10a,11,13,14-pentaaza-6,9-methanonaphtho[1,8-ab]heptalen-2-yl)-6-methyl-5-(trifluoromethyl)pyridin-2-amine], the values for the IC50 in experiment [1] (read-out: KRas HTRF IC50) and in experiment [2] were 14.1 nM and 0.29 nM, respectively.
As to `Cc1cc(-c2nc3c4c(nc(OC[C@@]56CCCN5C[C@H](F)C6)nc4c2F)N2C[C@H]4CC[C@H](N4)[C@H]2[C@H](C)O3)c(F)c(N)c1F` [Compound 18, 2,6-difluoro-3-((5S,5aS,6S,9R)-1-fluoro-12-(((2R,7aS)-2-fluorotetrahydro-1H-pyrrolizin-7a(5H)-yl)methoxy)-5-methyl-5a,6,7,8,9,10-hexahydro-5H-4-oxa-3,10a,11,13,14-pentaaza-6,9-methanonaphtho[1,8-ab]heptalen-2-yl)-5-methylaniline], the results for the IC50 in experiment [1] (setting [3]) and in experiment [2] were 7850 nM and 175 nM, respectively.
With `C[C@@H]1Oc2nc(-c3cc(N)c(F)c(F)c3C(F)(F)F)c(F)c3nc(OC[C@@]45CCCN4C[C@H](F)C5)nc(c23)N2C[C@H]3CC[C@H](N3)[C@@H]12` [Compound 15, 2,3-difluoro-5-((5S,5aS,6S,9R)-1-fluoro-12-(((2R,7aS)-2-fluorotetrahydro-1H-pyrrolizin-7a(5H)-yl)methoxy)-5-methyl-5a,6,7,8,9,10-hexahydro-5H-4-oxa-3,10a,11,13,14-pentaaza-6,9-methanonaphtho[1,8-ab]heptalen-2-yl)-4-(trifluoromethyl)aniline], the results for the IC50 in experiment [1] (setting [3]) and in experiment [2] were 0.448 nM and 0.07 nM, respectively.

Source of the values: patent US20240025919A1, “AZA-TETRACYCLIC OXAZEPINE COMPOUNDS AND USES THEREOF” (Genentech, Inc., priority 2022, published 2024).
